#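 In this assay, cells in 96-well plates receive the compound at five concentrations for 48 hours. Endpoints are linearly interpolated between the surrounding concentrations. GI50: concentration for 50% inhibition of growth. TGI: total growth inhibition.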
# Assays:
# Test in all cases: NCI-60 cell line screen, 48 h
# SNB-75 CNS = system: SNB-75 CNS
# SK-OV-3 ovarian = system: SK-OV-3 ovarian
# RXF 393 renal = system: RXF 393 renal
# SW-620 colon = system: SW-620 colon
# A498 renal = system: A498 renal
# NCI/ADR-RES ovarian = system: NCI/ADR-RES ovarian
# HT29 colon = system: HT29 colon
# IGROV1 ovarian = system: IGROV1 ovarian
# TK-10 renal = system: TK-10 renal
# EKVX NSCLC = system: EKVX NSCLC
Compound,TGI (SNB-75 CNS),TGI (SK-OV-3 ovarian),TGI (RXF 393 renal),TGI (SW-620 colon),TGI (A498 renal),TGI (NCI/ADR-RES ovarian),TGI (HT29 colon),TGI (IGROV1 ovarian),TGI (TK-10 renal),TGI (EKVX NSCLC),GI50 (SNB-75 CNS),GI50 (SK-OV-3 ovarian),GI50 (RXF 393 renal),GI50 (SW-620 colon),GI50 (A498 renal),GI50 (NCI/ADR-RES ovarian),GI50 (HT29 colon),GI50 (IGROV1 ovarian),GI50 (TK-10 renal),GI50 (EKVX NSCLC)
Cc1cc[n+]2c(c1)-c1cc(C)cc[n+]1CC2,> 100 µM,> 100 µM,> 100 µM,> 100 µM,> 100 µM,> 100 µM,> 100 µM,> 100 µM,> 100 µM,> 100 µM,–,–,–,–,–,–,–,–,–,–
c1ccc2c(c1)Nc1ccncc1S2,56.6 µM,> 100 µM,32 µM,92.6 µM,24.4 µM,> 100 µM,> 100 µM,99.6 µM,83.4 µM,81.5 µM,18.1 µM,37 µM,11.9 µM,21.2 µM,5.13 µM,21.4 µM,18.4 µM,22.8 µM,22.7 µM,12.1 µM
O=C(CCCCCCN1CC(=O)N2[C@@H](c3ccc(Cl)c(Cl)c3)c3[nH]c4ccccc4c3C[C@H]2C1=O)NO,7 µM,9.81 µM,6.04 µM,9.3 µM,9.92 µM,> 33.3 µM,9 µM,5.07 µM,10.2 µM,> 33.3 µM,0.832 µM,4.58 µM,1.73 µM,1.97 µM,5.28 µM,> 33.3 µM,2.93 µM,1.32 µM,3.51 µM,7.71 µM
CN(CCNCc1ccccn1)CCNCc1ccccn1,16 µM,5.27 µM,3.81 µM,11.3 µM,3.27 µM,> 100 µM,7.86 µM,12.6 µM,6.94 µM,12.3 µM,3.04 µM,2.24 µM,1.94 µM,3.18 µM,1.8 µM,3.57 µM,2.79 µM,3.23 µM,2.19 µM,3.01 µM
COc1ccc(/C=C(\C#N)n2nnc3c(F)cccc32)cc1,0.517 µM,> 90 µM,0.572 µM,> 100 µM,1.04 µM,4.52 µM,–,> 36.9 µM,29 µM,> 100 µM,0.17 µM,1.05 µM,0.182 µM,0.2 µM,0.22 µM,0.181 µM,0.286 µM,0.388 µM,2.73 µM,0.501 µM
Oc1ccc(C(c2ccc(O)cc2)c2ccc(Br)cn2)cc1,0.635 µM,65.4 µM,0.532 µM,> 100 µM,16.1 µM,0.55 µM,98.7 µM,42.7 µM,1.13 µM,3.85 µM,0.192 µM,12.5 µM,0.217 µM,35.9 µM,0.6 µM,0.229 µM,5.99 µM,0.476 µM,0.258 µM,0.358 µM
NS(=O)(=O)c1ccc(-c2cc3ccncc3cc2OCc2ccccc2)cc1,> 25 µM,> 19.3 µM,> 25 µM,> 25 µM,> 25 µM,> 25 µM,> 25 µM,> 25 µM,> 25 µM,> 25 µM,5.27 µM,11.1 µM,7.16 µM,> 22.9 µM,5.65 µM,25 µM,> 16.4 µM,> 25 µM,> 23.1 µM,> 22.9 µM
COC1=C(OC)C(=O)C(SC/C=C(\C)CCCC(C)CCCC(C)CCCC(C)C)=CC1=O (centres undefined),> 26.1 µM,> 91.6 µM,> 91.6 µM,> 100 µM,6.05 µM,> 46.7 µM,> 100 µM,> 29.2 µM,> 59.4 µM,> 37.7 µM,0.972 µM,2.47 µM,1.36 µM,0.872 µM,1.57 µM,0.784 µM,4.24 µM,2.94 µM,2.46 µM,1.11 µM

# — PubChem BioAssay (NCI)
